Experimental data as given in article PMC11783601, “Analogue-Sensitive Inhibition of Histone Demethylases Uncovers Member-Specific Function in Ribosomal Protein Synthesis” (Journal of the American Chemical Society, 2025).

Target: T1, full-length wild type KDM4A (Homo sapiens, UniProt O75164)
T1 construct: Expression of full-length KDM4A-E and their mutants in HEK293T cells; host or cells: HEK293T
Assay: H3K9me3 Western blot of nuclear extracts of transfected HEK293T cells
Type: cell-based
Details: 10 μM n-octyl IOX1, Western blot
Method: To test the orthogonality of NOL toward wild type KDM4A, HEK293T cells, either nontransfected or transfected with KDM4A, were individually treated with DMSO, 400 μM 6A or 10 μM n-octyl IOX1, a nonspecific inhibitor of 2OG enzymes. […] To further probe for off-target effects of 6 on endogenous 2OG enzymes, HEK293T cells were cultured with DMSO or 400 μM 6A and examined for several postsynthetic modifications catalyzed by these dioxygenases. Key trimethylated lysine marks on extracted histone were analyzed by Western blot using corresponding antibodies (Figure S31). […] Similarly, no change in prolyl hydroxylation was detected when cellular extracts were subjected to the pan hydroxyproline antibody.
KDM4A mammalian expression plasmid in CMV vector was purchased from Addgene (plasmid #24180). KDM4B mammalian expression plasmid in CMV vector was purchased from Addgene (plasmid #24181). KDM4C mammalian expression plasmid in CMV vector was purchased from Addgene (plasmid #24214). KDM4D mammalian expression plasmid in pReciever vector was purchased from Genecopoia (EX-Z0917-M06.) KDME mammalian expression plasmid in pRP-EXP was designed from Vector Builder. […]
20. Quantification of fixed-cell imaging data
TIF images obtained from confocal microscopy experiments were quantified in ImageJ. […]

T1 sequence (O75164 whole entry): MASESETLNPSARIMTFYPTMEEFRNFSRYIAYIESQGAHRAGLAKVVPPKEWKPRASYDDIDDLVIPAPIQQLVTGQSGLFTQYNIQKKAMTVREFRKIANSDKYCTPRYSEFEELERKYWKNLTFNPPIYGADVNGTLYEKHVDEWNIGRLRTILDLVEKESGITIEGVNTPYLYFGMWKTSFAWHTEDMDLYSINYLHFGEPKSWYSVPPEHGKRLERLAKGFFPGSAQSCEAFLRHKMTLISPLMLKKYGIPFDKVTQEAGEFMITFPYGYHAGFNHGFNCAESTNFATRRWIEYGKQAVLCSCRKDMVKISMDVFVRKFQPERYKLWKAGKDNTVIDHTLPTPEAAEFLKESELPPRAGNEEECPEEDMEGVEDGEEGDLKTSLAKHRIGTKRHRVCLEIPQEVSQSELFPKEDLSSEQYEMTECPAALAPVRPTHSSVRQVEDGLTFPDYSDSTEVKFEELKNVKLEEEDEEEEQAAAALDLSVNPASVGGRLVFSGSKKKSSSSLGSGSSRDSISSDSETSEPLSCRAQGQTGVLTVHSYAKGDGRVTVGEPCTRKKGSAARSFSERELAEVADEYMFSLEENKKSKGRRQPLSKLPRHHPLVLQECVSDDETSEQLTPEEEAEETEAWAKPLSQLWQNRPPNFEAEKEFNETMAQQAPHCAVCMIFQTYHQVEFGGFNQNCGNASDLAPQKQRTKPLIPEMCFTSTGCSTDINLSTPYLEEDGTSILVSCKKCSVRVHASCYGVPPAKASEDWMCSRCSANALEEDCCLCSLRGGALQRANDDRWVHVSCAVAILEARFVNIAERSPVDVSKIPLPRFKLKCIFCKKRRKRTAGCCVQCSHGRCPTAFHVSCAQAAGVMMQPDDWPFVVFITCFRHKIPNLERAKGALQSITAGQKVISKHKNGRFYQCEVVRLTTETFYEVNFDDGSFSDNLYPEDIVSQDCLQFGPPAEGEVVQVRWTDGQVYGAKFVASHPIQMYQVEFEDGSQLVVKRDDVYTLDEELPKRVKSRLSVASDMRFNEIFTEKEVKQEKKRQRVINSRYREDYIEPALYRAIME

inhibition of wild type KDM4A H3K9me3 demethylation: Inhibition
inhibition of wild type KDM4A H3K9me3 demethylation (listed as IOX1): strongly inhibited
SMILES: CCCCCCCCOC(=O)c1ccc(O)c2ncccc12 [n-octyl IOX1]
